In patent US20150344457A1, “METHODS OF INHIBITING PRMT5” (EPIZYME, INC., priority 2012, published 2015):

The compounds below were run against T1, PRMT5/MEP50 (Homo sapiens, UniProt O14744) (assay: PRMT5 Biochemical Assay (PRMT5/MEP50 enzyme assay on peptide substrate, 3H-SAM Flashplate)). Conditions: Table A-2; PRMT5/MEP50 4 nM, 3H-SAM 75 nM, peptide 40 nM; read-out: Biochemical IC50.
T1 construct: Expressed full-length human Flag-PRMT5/6His-MeP50 protein complex was purified; made in house; host or cells: Spodoptera frugiperda (SF9) insect cells, baculovirus (pDEST8)
T1 sequence (O14744 with tags, fused parts or gaps): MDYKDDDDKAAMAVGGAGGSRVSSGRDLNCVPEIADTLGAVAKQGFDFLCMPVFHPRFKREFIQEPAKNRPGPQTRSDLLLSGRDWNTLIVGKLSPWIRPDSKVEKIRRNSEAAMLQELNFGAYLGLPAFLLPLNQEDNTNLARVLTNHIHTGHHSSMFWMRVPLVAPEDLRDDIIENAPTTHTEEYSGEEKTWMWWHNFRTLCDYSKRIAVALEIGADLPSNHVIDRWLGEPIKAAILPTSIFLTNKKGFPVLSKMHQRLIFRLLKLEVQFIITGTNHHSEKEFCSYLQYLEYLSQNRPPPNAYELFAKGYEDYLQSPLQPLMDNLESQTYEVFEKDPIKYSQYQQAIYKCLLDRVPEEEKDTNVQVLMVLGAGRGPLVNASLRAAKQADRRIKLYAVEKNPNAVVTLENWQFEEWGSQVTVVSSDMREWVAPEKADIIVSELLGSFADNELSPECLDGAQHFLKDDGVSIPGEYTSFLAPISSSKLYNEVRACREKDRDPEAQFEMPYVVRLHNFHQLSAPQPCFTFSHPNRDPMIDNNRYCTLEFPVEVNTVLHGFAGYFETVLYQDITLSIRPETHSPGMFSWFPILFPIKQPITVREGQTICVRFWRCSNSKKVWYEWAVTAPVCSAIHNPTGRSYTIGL
T1 sequence (Q9BQA1 with tags, fused parts or gaps partner limits assumed): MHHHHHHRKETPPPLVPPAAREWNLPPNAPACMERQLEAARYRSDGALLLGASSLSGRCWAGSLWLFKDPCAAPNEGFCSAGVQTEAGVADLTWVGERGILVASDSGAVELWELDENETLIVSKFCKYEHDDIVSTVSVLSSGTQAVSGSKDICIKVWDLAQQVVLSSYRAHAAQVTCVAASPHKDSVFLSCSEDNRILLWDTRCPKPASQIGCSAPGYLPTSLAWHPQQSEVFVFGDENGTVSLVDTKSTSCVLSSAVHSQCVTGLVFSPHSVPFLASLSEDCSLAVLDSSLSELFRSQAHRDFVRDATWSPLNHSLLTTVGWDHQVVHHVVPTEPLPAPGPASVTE

IC50 | Structure (SMILES)
< 100 nM | O=C(COc1cccc(CN2CCOCC2)c1)NCC(O)CN1CCc2ccccc2C1 (centres unmarked) [Compound A75]
< 100 nM | C[C@H](Oc1cccc2cccnc12)C(=O)NC[C@H](O)CN1CCc2ccccc2C1 [Compound A76]
< 100 nM | O=C(COc1ccccc1N1CCOCC1)NC[C@H](O)CN1CCc2ccccc2C1 [Compound A77]
< 100 nM | O=C(COc1ccccc1N1CCNCC1)NCC(O)CN1CCc2ccccc2C1 (centres unmarked) [Compound A79]
< 100 nM | CN1C(=O)COc2cccc(OCC(=O)NCC(O)CN3CCc4ccccc4C3)c21 (centres unmarked) [Compound A80]
< 100 nM | CN1CCOc2cccc(OCC(=O)NCC(O)CN3CCc4ccccc4C3)c21 (centres unmarked) [Compound A81]
< 100 nM | Cn1ncc2c(OCC(=O)NCC(O)CN3CCc4ccccc4C3)cccc21 (centres unmarked) [Compound A82]
101 to 1000 nM | O=C(COc1cccc(C(=O)N2CCOCC2)c1)NCC(O)CN1CCc2ccccc2C1 (centres unmarked) [Compound A83]
< 100 nM | CN1CCN(c2ccccc2OCC(=O)NC[C@H](O)CN2CCc3ccccc3C2)CC1 [Compound A84]
< 100 nM | O=C(COc1ccccc1OCCN1CCOCC1)NC[C@H](O)CN1CCc2ccccc2C1 [Compound A86]
< 100 nM | CN(C)CCOc1ccccc1OCC(=O)NC[C@H](O)CN1CCc2ccccc2C1 [Compound A88]
< 100 nM | CC(=O)N1CCN(c2ccccc2OCC(=O)NCC(O)CN2CCc3ccccc3C2)CC1 (centres unmarked) [Compound A90]
< 100 nM | O=C(COc1cccc2c1CCNC2)NCC(O)CN1CCc2ccccc2C1 (centres unmarked) [Compound A91]
< 100 nM | O=C(COc1cccc2nccnc12)NCC(O)CN1CCc2ccccc2C1 (centres unmarked) [Compound A92]
< 100 nM | O=C(COc1cccc(NC2CCOCC2)c1)NCC(O)CN1CCc2ccccc2C1 (centres unmarked) [Compound A93]
< 100 nM | O=C(COc1c(CN2CCOCC2)ccc2cccnc12)NC[C@H](O)CN1CCc2ccccc2C1 [Compound A94]
< 100 nM | O=C(COc1ccc2c(cnn2C2CCNC2)c1)NCC(O)CN1CCc2ccccc2C1 (centres unmarked) [Compound A95]

Same assay, conditions: Table D-2; read-out: Biochemical IC50

IC50 | Structure (SMILES)
< 100 nM | Cn1ncc2ccc(-c3cccc(OCC(O)CN4CCc5ccccc5C4)c3)cc21 (centres unmarked) [Compound D106]
< 100 nM | Cn1ncc2cc(-c3cccc(OCC(O)CN4CCc5ccccc5C4)c3)ccc21 (centres unmarked) [Compound D108]
101 to 1000 nM | Cc1ccncc1-c1cccc(OCC(O)CN2CCc3ccccc3C2)c1 (centres unmarked) [Compound D113]
101 to 1000 nM | CS(=O)(=O)Nc1ccc(-c2cccc(OCC(O)CN3CCc4ccccc4C3)c2)cc1 (centres unmarked) [Compound D129]
101 to 1000 nM | COC(=O)c1cccc(-c2cccc(OCC(O)CN3CCc4ccccc4C3)c2)c1 (centres unmarked) [Compound D135]
101 to 1000 nM | CC(=O)c1ccc(-c2cccc(OCC(O)CN3CCc4ccccc4C3)c2)cc1 (centres unmarked) [Compound D137]
101 to 1000 nM | Cc1ccc(F)c(-c2cccc(OCC(O)CN3CCc4ccccc4C3)c2)c1 (centres unmarked) [Compound D138]
101 to 1000 nM | OC(COc1cccc(-c2cccnc2F)c1)CN1CCc2ccccc2C1 (centres unmarked) [Compound D139]
< 100 nM | Cn1ccc2cnc(-c3cccc(OCC(O)CN4CCc5ccccc5C4)c3)nc21 (centres unmarked) [Compound D141]
101 to 1000 nM | O=C(Nc1cccc(OCC(O)CN2CCc3ccccc3C2)c1)c1cnccn1 (centres unmarked) [Compound D145]
101 to 1000 nM | NC(=O)c1ccc(-c2cccc(OCC(O)CN3CCc4ccccc4C3)c2)cc1 (centres unmarked) [Compound D152]
1000 to 10000 nM | Cn1nccc1C(=O)Nc1cccc(OCC(O)CN2CCc3ccccc3C2)c1 (centres unmarked) [Compound D160]
1000 to 10000 nM | O=C(Nc1cccc(OCC(O)CN2CCc3ccccc3C2)c1)c1cncnc1 (centres unmarked) [Compound D161]
1000 to 10000 nM | Cn1ccc(C(=O)Nc2cccc(OCC(O)CN3CCc4ccccc4C3)c2)n1 (centres unmarked) [Compound D162]
1000 to 10000 nM | OC(COc1cccc(-c2ccc3cnoc3c2)c1)CN1CCc2ccccc2C1 (centres unmarked) [Compound D166]
101 to 1000 nM | CC(=O)Nc1cccc(-c2cccc(OCC(O)CN3CCc4ccccc4C3)c2)c1 (centres unmarked) [Compound D169]
101 to 1000 nM | NC(=O)c1cccc(-c2cccc(OCC(O)CN3CCc4ccccc4C3)c2)c1 (centres unmarked) [Compound D171]
< 100 nM | Cn1cnc2ccc(-c3cccc(OC[C@H](O)CN4CCc5ccccc5C4)c3)cc21 [Compound D174]
< 100 nM | Cn1ccc2ccc(-c3cccc(OCC(O)CN4CCc5ccccc5C4)c3)nc21 (centres unmarked) [Compound D176]
1000 to 10000 nM | COC(=O)c1cncc(-c2cccc(OCC(O)CN3CCc4ccccc4C3)c2)c1 (centres unmarked) [Compound D180]
1000 to 10000 nM | CNC(=O)c1cncc(-c2cccc(OCC(O)CN3CCc4ccccc4C3)c2)c1 (centres unmarked) [Compound D182]
1000 to 10000 nM | Cn1cnc(C(=O)Nc2cccc(OCC(O)CN3CCc4ccccc4C3)c2)c1 (centres unmarked) [Compound D183]
101 to 1000 nM | CNC(=O)c1cccc(-c2cccc(OCC(O)CN3CCc4ccccc4C3)c2)c1 (centres unmarked) [Compound D186]
101 to 1000 nM | Cc1cn(C)c2cc(-c3cccc(OCC(O)CN4CCc5ccccc5C4)c3)ccc12 (centres unmarked) [Compound D187]
101 to 1000 nM | OC(COc1cccc(-c2ccc3ncoc3c2)c1)CN1CCc2ccccc2C1 (centres unmarked) [Compound D188]
< 100 nM | Cn1cnc2ccc(-c3cccc(OCC(O)CN4CCc5ccccc5C4)c3)nc21 (centres unmarked) [Compound D189]

The next lines start with the compound.

Structure (SMILES) | IC50
Cn1cnc2ccc(-c3cccc(NCC(O)CN4CCc5ccccc5C4)c3)cc21 (centres unmarked) [Compound D102] | < 100 nM
OC(COc1cccc(-c2ccc3ncn(C4CCOCC4)c3c2)c1)CN1CCc2ccccc2C1 (centres unmarked) [Compound D103] | 101 to 1000 nM
OC(COc1cccc(-c2ccc3ncn(-c4ccccc4)c3c2)c1)CN1CCc2ccccc2C1 (centres unmarked) [Compound D104] | 101 to 1000 nM
OC(COc1cccc(-c2ccc3ncn(Cc4ccccc4)c3c2)c1)CN1CCc2ccccc2C1 (centres unmarked) [Compound D105] | < 100 nM
OC(COc1cccc(-c2ccc3[nH]ncc3c2)c1)CN1CCc2ccccc2C1 (centres unmarked) [Compound D107] | 101 to 1000 nM
O=c1[nH]c2ccc(-c3cccc(OCC(O)CN4CCc5ccccc5C4)c3)cc2[nH]1 (centres unmarked) [Compound D109] | 101 to 1000 nM
CN(CC(O)CN1CCc2ccccc2C1)c1cccc(CNC2CCOCC2)c1 (centres unmarked) [Compound D116] | < 100 nM
Cn1cnc2ccc(-c3cccc(NCC(O)CN4CCc5ccccc5C4)n3)cc21 (centres unmarked) [Compound D117] | 101 to 1000 nM
Cn1cnc2ccc(-c3ccnc(NCC(O)CN4CCc5ccccc5C4)c3)cc21 (centres unmarked) [Compound D118] | < 100 nM
Cn1cnc2ccc(-c3ccnc(NCC(O)CN4CCc5ccccc5C4)n3)cc21 (centres unmarked) [Compound D119] | 101 to 1000 nM
Cn1cnc2ccc(-c3cncc(NCC(O)CN4CCc5ccccc5C4)n3)cc21 (centres unmarked) [Compound D121] | 101 to 1000 nM
OC(COc1cccc(-c2ccc(C(F)(F)F)cc2C(F)(F)F)c1)CN1CCc2ccccc2C1 (centres unmarked) [Compound D124] | 101 to 1000 nM
CN(C)c1ncc(-c2cccc(OCC(O)CN3CCc4ccccc4C3)c2)cn1 (centres unmarked) [Compound D125] | 101 to 1000 nM
O=C(c1cccc(-c2cccc(OCC(O)CN3CCc4ccccc4C3)c2)c1)N1CCOCC1 (centres unmarked) [Compound D126] | 101 to 1000 nM
OC(COc1cccc(-c2ccc(C(F)(F)F)cc2Cl)c1)CN1CCc2ccccc2C1 (centres unmarked) [Compound D127] | 101 to 1000 nM
CS(=O)(=O)c1cccc(-c2cccc(OCC(O)CN3CCc4ccccc4C3)c2)c1 (centres unmarked) [Compound D130] | 101 to 1000 nM
CS(=O)(=O)c1ccccc1-c1cccc(OCC(O)CN2CCc3ccccc3C2)c1 (centres unmarked) [Compound D131] | 101 to 1000 nM
OC(COc1cccc(-c2ccccc2C(F)(F)F)c1)CN1CCc2ccccc2C1 (centres unmarked) [Compound D132] | 101 to 1000 nM
COc1ccc(Cl)cc1-c1cccc(OCC(O)CN2CCc3ccccc3C2)c1 (centres unmarked) [Compound D134] | 101 to 1000 nM

Structure (SMILES) | IC50
Cn1ncc2ccc(-c3cc(COCC(O)CN4CCc5ccccc5C4)on3)cc21 (centres unmarked) [Compound D136] | 101 to 1000 nM
Cn1ccc2ccc(-c3cccc(OCC(O)CN4CCc5ccccc5C4)c3)cc21 (centres unmarked) [Compound D147] | 101 to 1000 nM
O=C1NCc2ccc(-c3cccc(OCC(O)CN4CCc5ccccc5C4)c3)cc21 (centres unmarked) [Compound D148] | 101 to 1000 nM
CN1CCN(c2ccc(-c3cccc(OCC(O)CN4CCc5ccccc5C4)c3)cn2)CC1 (centres unmarked) [Compound D149] | 101 to 1000 nM
CC(C)(C)OCc1cccc(-c2cccc(OCC(O)CN3CCc4ccccc4C3)c2)c1 (centres unmarked) [Compound D150] | 101 to 1000 nM
CN(C)c1ccc(-c2cccc(OCC(O)CN3CCc4ccccc4C3)c2)cc1 (centres unmarked) [Compound D151] | 101 to 1000 nM
O=C1COc2ccc(-c3cccc(OCC(O)CN4CCc5ccccc5C4)c3)cc2N1 (centres unmarked) [Compound D156] | 101 to 1000 nM
OC(COc1cccc(-c2ccccc2Oc2ccccc2)c1)CN1CCc2ccccc2C1 (centres unmarked) [Compound D167] | 101 to 1000 nM
COc1ccc(-c2cccc(OCC(O)CN3CCc4ccccc4C3)c2)cc1Cl (centres unmarked) [Compound D168] | 101 to 1000 nM
OC(COc1cccc(-c2csc3ccccc23)c1)CN1CCc2ccccc2C1 (centres unmarked) [Compound D170] | 101 to 1000 nM
N#Cc1cccc(-c2cccc(OCC(O)CN3CCc4ccccc4C3)c2)c1 (centres unmarked) [Compound D172] | 101 to 1000 nM
O=C(c1cccc(-c2cccc(OCC(O)CN3CCc4ccccc4C3)c2)c1)N1CCCC1 (centres unmarked) [Compound D185] | 101 to 1000 nM
Cn1cnc2cnc(-c3cccc(OCC(O)CN4CCc5ccccc5C4)c3)nc21 (centres unmarked) [Compound D191] | 101 to 1000 nM
Cn1cnc2ccc(-c3cncc(NCC(O)CN4CCc5ccccc5C4)c3)cc21 (centres unmarked) [Compound D199] | < 100 nM
OC(COc1cccc(-c2cc(OC(F)(F)F)ccc2Cl)c1)CN1CCc2ccccc2C1 (centres unmarked) [Compound D200] | 101 to 1000 nM
CC(C)Oc1ccc(F)c(-c2cccc(OCC(O)CN3CCc4ccccc4C3)c2)c1 (centres unmarked) [Compound D201] | 101 to 1000 nM
Cn1ncc2ccc(-c3cc(NCC(O)CN4CCc5ccccc5C4)ncn3)cc21 (centres unmarked) [Compound D205] | 101 to 1000 nM
Cn1cnc2ccc(-c3cc(NCC(O)CN4CCc5ccccc5C4)ncn3)cc21 (centres unmarked) [Compound D207] | 101 to 1000 nM
